Literature values in patent US20070190117A1 (priority 2003, published 2007).

Conditions: galanthamine as hydrobromide or another pharmacologically acceptable salt

SMILES: COc1ccc2c3c1O[C@H]1C[C@@H](O)C=C[C@@]31CCN(C)C2 [galanthamine, 4a,5,9,11,12-hexahydro-3-methoxy-11-methyl[6H]-benzofuro-[3a,3,2ef][2]benzazepine-6-ol]
- half life in plasma: approx. 5 h
